The source of these data is US20240199623A1 (ILDONG PHARMACEUTICAL CO., LTD., priority 2020, published 2024).

Data set [1] has as its target T1, Human recombinant PDE4A1A (Homo sapiens, UniProt P27815).
T1 construct: purchased BPS Bioscience; host or cells: insect Sf9 cells
As to the kind of experiment: Human phosphodiesterase 4 (PDE4) inhibition, PDE4A1A. It counts as biochemical. To be noted: read-out: % inhibition range at 10 uM PDE4A1A; 10 uM test compound. The protocol: (§1) […] Human recombinant PDE4A1A, PDE4B 1, PDE4C1 and PDE4D2 are respectively expressed in each host cell (insect Sf9 cells, BPS Bioscience). Preincubation of 10 μM test compounds or vehicle was proceeded with 20 ng/ml PDE4A1A or 4 ng/ml PDE4B 1 or 8 ng/ml PDE4C1 or 5 ng/ml PDE4D2 enzyme in Tris-HCl buffer pH 7.2 for 15 minutes at 25° C. 100 nM fluorescein (FAM) labeled cAMP for another 30 minutes incubation period was added in order to initiate the enzymatic reaction and addition of IMAP binding solution was followed for its termination. Specifically, IMAP complexes with phosphate groups on nucleotide monophosphate generated from cyclic nucleotides through PDE activity. The amount of complex formed is determined by reading spectrofluorimetrical signal at 470 nm/525 nm.

Data set [2] deals with T2, human wild type-CFTR (Homo sapiens, UniProt P13569). As to the kind of experiment: Cell-based YFP assay. Also on record: expressed in transfected cells; host or cells: CHO-K1 (Chinese hamster ovary). To be noted: CHO-K1 cells expressing human wild type-CFTR and YFP-H148Q/I152L; forskolin 20 μM = 100% activity; read-out: Cell-based YFP Assay (EC50) Concentration Range. An outline of the steps: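 CHO-K1 cells co-expressing human wild-type CFTR and YFP-H148Q/I152L halide sensor, grown 48 h at 37 °C, then in PBS. YFP quenching by I⁻ influx read at 37 °C after adding 140 mM I⁻ solution, sampled every 0.4 s for 14 s. Triplicates averaged; EC50 fitted.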

The target of data set [3] is T3, Human recombinant PDE4B 1 (Homo sapiens, UniProt Q07343).
T3 construct: purchased BPS Bioscience; host or cells: insect Sf9 cells
Briefly: Human phosphodiesterase 4 (PDE4) inhibition, PDE4B 1. It counts as biochemical. To be noted: read-out: % inhibition range at 10 uM PDE4B1; 10 uM test compound. As for the experimental part:
as §1

In a further data set the target is T4, Human recombinant PDE4D2 (Homo sapiens, UniProt Q08499).
T4 construct: purchased BPS Bioscience; host or cells: insect Sf9 cells
Briefly: Human phosphodiesterase 4 (PDE4) inhibition, PDE4D2. It counts as biochemical. To be noted: read-out: % inhibition range at 10 uM PDE4D2; 10 uM test compound. The protocol: as §1

A further data set deals with T5, Human recombinant PDE4C1 (Homo sapiens, UniProt Q08493).
T5 construct: purchased BPS Bioscience; host or cells: insect Sf9 cells
Briefly: Human phosphodiesterase 4 (PDE4) inhibition, PDE4C1. It counts as biochemical. To be noted: read-out: % inhibition range at 10 uM PDE4C1; 10 uM test compound. As for the experimental part: as §1

The nature of data set [4]: Phosphate-buffered saline (PBS) solubility of compounds. It counts as physicochemical. To be noted: aqueous buffer, thermodynamic from solid, PBS pH 7.5, 0.5 mg/mL, vortexed 90 min, filtered, LC-MS/MS, read-out: Solubility Range. As for the experimental part: PBS solutions (pH 7.5) were prepared according to the following compositions and stored at 4° C. Test compounds were dissolved in PBS (pH 7.5) at 0.5 mg/mL and vortexed for 90 min. The PBS solution was sequentially filtered through a 0.45, 1.2, […] syringe filter. Concentration of test compounds were determined using LC-MS/MS with appropriate dilution of the samples.

For the next data set, the system named is C57BL/6 female mice. Briefly: Scopolamine induced tear volume reduction model. It counts as in vivo, mouse. To be noted: scopolamine-injected mice, ophthalmic solution topically on both eyes 3 times a day, phenol red thread; average if evaluated twice. As for the experimental part: Seven-week old C57BL/6 female mice were used.
Scopolamine hydrobromide was purchased from Sigma Aldrich (Cat No. S0929), dissolved in saline, and sterilized prior to use.
Zone-Quick phenol red thread was obtained from Menicon.
The test compounds used in this experiment were dissolved in PBS containing 1% of surfactant.
Scopolamine (0.2 ml of 2.5 mg/mL solution) was injected subcutaneously 3 times a day to induce a decrease in the tear volume in the mouse. At the same time, the ophthalmic solution of test compounds or vehicle were topically administered onto both eyes 3 times a day. Tear volume was measured by phenol red thread before dosing (basal level) and 1 hour after the last administration of scopolamine and ophthalmic solution. The results were obtained by measuring the length of the phenol red thread turning red by tears. The schedule of study is expressed as FIG. 1.
If the test compound was evaluated twice, the average value was used.

Data set [5] deals with T2, human wild type-CFTR. Briefly: Short-circuit current measurement. To be noted: FRT cells expressing human wild type-CFTR; Forskolin 20 μM signal used as 100% activity; read-out: Short-circuit current measurement (EC50) Concentration range. The arrangement: expressed in transfected cells. Type of data set: cell-based. The source says: Forskolin (Tocris cat. #1099), CFTRinh-172 (Tocris cat. #3430), amphotericin B (Tocris cat. #6930), dimethyl sulfoxide (Sigma cat. #D4540), EVC4000 Multi-Channel V/I Clamp (World Precision Instruments, Sarasota, FL), PowerLab 4/35 (AD Instruments, Castle Hill, Australia), Labchart Pro 7, GraphPad Prism 5 (GraphPad Software, Inc.). Fisher rat thyroid (FRT) cells expressing human wild type-CFTR were provided by Dr. Alan Verkman (University of California, San Francisco) and grown in DMEM/F12 medium (1:1) supplemented with 10% FBS, 2 mM glutamine, 100 units/ml penicillin and 100 μg/ml streptomycin. Snapwell inserts containing CF TR-expressing FRT cells were mounted in Ussing chambers (Physiologic Instruments, San Diego, CA). […] Forskolin, test compounds, and CFTRinh-172 were added to the apical and basolateral bath solution. Apical membrane current and short-circuit current were measured with an EVC4000 Multi-Channel V/I Clamp (World Precision Instruments, Sarasota, FL) and recorded using PowerLab 4/35 (AD Instruments, Castle Hill, Australia). Data were collected and analyzed with ADInstruments acquisition software Labchart Pro 7 software. The sampling rate was 4 Hz.

In brackets after ≈: the same amount, converted by molar mass.

T2 sequence (P13569 whole entry): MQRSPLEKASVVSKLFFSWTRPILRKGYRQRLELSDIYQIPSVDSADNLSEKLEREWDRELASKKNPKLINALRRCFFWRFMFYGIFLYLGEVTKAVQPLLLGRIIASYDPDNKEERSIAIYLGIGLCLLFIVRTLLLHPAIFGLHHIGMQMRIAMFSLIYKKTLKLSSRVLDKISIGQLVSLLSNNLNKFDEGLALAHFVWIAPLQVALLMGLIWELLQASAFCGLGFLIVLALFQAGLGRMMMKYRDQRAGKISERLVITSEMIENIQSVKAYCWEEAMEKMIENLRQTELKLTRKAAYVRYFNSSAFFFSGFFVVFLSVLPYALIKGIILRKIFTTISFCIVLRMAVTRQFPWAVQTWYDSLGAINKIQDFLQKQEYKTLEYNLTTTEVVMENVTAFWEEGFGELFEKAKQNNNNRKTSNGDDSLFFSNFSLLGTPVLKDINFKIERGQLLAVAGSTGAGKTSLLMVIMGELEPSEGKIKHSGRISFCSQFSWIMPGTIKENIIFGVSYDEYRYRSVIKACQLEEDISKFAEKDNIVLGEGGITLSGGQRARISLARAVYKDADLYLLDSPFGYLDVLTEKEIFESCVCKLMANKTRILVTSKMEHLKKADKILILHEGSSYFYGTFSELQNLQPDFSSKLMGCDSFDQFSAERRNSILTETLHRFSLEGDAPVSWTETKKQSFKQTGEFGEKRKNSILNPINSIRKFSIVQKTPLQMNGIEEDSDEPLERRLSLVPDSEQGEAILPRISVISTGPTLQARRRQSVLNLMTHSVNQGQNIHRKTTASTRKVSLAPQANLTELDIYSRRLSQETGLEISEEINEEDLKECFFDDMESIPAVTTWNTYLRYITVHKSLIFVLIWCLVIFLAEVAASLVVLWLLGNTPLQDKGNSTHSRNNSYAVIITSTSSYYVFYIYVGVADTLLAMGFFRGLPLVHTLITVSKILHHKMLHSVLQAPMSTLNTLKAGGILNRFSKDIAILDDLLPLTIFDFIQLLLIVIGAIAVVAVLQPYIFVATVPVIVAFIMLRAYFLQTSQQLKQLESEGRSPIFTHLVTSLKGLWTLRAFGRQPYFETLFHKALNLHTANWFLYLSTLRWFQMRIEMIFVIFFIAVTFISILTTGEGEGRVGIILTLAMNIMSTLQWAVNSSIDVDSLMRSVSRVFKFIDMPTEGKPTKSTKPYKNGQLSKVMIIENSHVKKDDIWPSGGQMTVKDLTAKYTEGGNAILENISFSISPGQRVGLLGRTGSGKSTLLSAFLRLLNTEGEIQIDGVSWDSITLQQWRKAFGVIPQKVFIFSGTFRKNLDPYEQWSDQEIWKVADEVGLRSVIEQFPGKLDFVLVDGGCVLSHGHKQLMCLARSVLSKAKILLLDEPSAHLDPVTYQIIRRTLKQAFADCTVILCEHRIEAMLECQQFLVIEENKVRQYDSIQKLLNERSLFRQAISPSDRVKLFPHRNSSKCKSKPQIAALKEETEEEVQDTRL
T5 sequence (Q08493 whole entry): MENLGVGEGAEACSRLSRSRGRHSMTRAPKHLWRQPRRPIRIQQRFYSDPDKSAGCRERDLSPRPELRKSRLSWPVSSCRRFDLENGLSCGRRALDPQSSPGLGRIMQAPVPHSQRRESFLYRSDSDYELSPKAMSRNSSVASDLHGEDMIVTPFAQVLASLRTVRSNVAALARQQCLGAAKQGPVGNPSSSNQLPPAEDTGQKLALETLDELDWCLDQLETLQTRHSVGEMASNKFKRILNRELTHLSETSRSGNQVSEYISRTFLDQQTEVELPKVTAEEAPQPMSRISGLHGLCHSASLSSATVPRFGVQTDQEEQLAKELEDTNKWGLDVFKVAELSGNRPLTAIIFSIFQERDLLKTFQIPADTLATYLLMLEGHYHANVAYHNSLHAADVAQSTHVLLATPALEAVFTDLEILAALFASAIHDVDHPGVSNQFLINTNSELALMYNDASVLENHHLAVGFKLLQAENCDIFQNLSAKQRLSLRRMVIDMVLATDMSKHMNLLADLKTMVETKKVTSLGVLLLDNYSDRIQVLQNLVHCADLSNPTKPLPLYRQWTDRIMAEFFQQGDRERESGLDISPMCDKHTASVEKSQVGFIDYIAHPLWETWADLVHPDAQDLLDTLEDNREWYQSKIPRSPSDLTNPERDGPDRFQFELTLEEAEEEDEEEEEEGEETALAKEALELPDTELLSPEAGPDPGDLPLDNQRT
T4 sequence (Q08499 303-809 limits assumed): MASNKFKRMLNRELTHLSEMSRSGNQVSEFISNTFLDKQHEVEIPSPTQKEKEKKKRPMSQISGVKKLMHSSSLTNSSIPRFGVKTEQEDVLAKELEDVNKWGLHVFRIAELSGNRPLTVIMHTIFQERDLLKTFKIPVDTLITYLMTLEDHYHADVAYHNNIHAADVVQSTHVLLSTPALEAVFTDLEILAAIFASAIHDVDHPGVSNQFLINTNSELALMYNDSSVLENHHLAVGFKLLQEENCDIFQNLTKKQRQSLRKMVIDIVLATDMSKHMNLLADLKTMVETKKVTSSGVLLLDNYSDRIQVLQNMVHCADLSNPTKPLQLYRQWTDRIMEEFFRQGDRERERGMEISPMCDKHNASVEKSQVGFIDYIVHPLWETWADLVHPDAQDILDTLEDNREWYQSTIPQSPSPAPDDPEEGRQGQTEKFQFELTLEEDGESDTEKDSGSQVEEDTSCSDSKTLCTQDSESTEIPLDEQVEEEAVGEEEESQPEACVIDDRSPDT
T1 sequence (P27815 1-647 isoform P27815-4): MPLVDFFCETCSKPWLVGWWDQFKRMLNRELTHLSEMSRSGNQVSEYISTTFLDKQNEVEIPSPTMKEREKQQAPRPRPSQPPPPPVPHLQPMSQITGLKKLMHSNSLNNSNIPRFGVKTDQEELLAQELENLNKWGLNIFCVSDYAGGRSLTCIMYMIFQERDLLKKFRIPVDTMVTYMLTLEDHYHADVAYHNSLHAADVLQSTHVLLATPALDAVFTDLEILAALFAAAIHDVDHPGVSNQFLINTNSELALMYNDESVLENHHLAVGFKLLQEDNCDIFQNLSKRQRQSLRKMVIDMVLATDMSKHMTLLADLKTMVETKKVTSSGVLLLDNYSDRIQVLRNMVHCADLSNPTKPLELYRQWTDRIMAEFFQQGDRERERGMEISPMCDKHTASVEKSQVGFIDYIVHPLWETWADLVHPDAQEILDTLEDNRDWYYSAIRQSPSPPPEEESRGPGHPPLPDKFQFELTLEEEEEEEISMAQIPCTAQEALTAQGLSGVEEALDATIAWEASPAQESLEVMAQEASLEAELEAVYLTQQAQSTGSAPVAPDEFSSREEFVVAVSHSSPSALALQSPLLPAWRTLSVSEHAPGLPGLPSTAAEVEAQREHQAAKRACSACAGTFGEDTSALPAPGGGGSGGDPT
T3 sequence (Q07343 whole entry): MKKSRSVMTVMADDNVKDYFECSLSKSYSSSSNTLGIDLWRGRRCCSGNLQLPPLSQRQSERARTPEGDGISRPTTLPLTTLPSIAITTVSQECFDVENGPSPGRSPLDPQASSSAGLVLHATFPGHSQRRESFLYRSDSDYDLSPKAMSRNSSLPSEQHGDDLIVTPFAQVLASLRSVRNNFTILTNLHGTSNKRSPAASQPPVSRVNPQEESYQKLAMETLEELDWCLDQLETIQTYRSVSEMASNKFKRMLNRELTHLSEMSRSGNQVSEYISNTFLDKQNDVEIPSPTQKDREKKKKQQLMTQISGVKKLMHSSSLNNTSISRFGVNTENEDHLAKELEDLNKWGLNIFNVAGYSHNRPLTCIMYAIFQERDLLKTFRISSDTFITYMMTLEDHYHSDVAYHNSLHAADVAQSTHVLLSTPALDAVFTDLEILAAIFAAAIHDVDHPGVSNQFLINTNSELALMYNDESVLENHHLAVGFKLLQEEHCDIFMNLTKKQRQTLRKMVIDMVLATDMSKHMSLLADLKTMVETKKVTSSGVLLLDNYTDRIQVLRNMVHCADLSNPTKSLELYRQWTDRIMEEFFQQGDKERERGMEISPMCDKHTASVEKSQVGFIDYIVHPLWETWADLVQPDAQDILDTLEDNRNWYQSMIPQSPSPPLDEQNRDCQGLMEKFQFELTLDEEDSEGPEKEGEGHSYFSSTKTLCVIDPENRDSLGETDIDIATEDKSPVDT

The term inhibition denotes the change of the read-out against control, counted positive when it falls. For the molecule `CCOc1ccc(C(=O)Nc2cc3nccc(-c4ccc(OC)c(OC)c4)n3n2)cc1` [Compound 287, N-(7-(3,4-dimethoxyphenyl)pyrazolo[1,5-a]pyrimidin-2-yl)-4-ethoxybenzamide], the inhibition at 10 µM was 50 to 80% in data set [1], 50 to 80% in data set [3], 50 to 80% at Human recombinant PDE4D2 and less than 50% at Human recombinant PDE4C1. Besides, the EC50 at human wild type-CFTR [2] lay within 200 to 2000 nM.

With `COC(=O)c1ccc(NC(=O)c2cc3ncc(-c4ccc(OC)c(OC)c4)cn3n2)cc1` [Compound 239, methyl 4-(6-(3,4-dimethoxyphenyl)pyrazolo[1,5-a]pyrimidine-2-carboxamido)benzoate], the inhibition at 10 µM (in data set [1]; in data set [3]; at Human recombinant PDE4D2; at Human recombinant PDE4C1) was less than 50% in each case. The EC50 on human wild type-CFTR [2] was not below 2000 nM.

The solubility is the dissolved amount per volume that the medium holds. In the case of `COC(=O)C12CC(NC(=O)c3cc4nccc(-c5ccc(OC)c(OC)c5)n4n3)(C1)C2` [Compound 36, methyl 3-(7-(3,4-dimethoxyphenyl)pyrazolo[1,5-a]pyrimidine-2-carboxamido)bicyclo[1.1.1]pentane-1-carboxylate], the solubility at 90 min in data set [4] fell in the range of 0.1 to 10 µg/mL (≈ 0.237 to 23.7 µM). Besides, the EC50 is 200 to 2000 nM at human wild type-CFTR [2] and not below 2000 nM at human wild type-CFTR [5]. Also, in the data set on C57BL/6 female mice, the “Ratio of tear volume (test compound to vehicle)” value (“Ratio of tear volume” below) is 1.23.

With `CCOc1ccc(NC(=O)c2cc3nccc(-c4ccc(OC)c(OC)c4)n3n2)cc1` [Compound 3, 7-(3,4-dimethoxyphenyl)-N-(4-ethoxyphenyl)pyrazolo[1,5-a]pyrimidine-2-carboxamide], the solubility at 90 min in data set [4] was less than 0.1 µg/mL. Moreover, the EC50 on human wild type-CFTR [2] and at human wild type-CFTR [5] was less than 200 nM throughout. Moreover, the “Ratio of tear volume” value in the data set on C57BL/6 female mice was found to be 1.20.

For the molecule `COc1ccc(-c2ccnc3cc(C(=O)Nc4ccc(NC(=O)CNC(=O)OC(C)(C)C)cc4)nn23)cc1OC` [Compound 280, tert-butyl (2-((4-(7-(3,4-dimethoxyphenyl)pyrazolo [1,5-a]pyrimidine-2-carboxamido)phenyl)amino)-2-oxoethyl)carbamate], the solubility at 90 min in data set [4] is less than 0.1 µg/mL. Also, the EC50 on human wild type-CFTR [2] and on human wild type-CFTR [5] was less than 200 nM in each case. The “Ratio of tear volume” value in the data set on C57BL/6 female mice was determined as 1.32.

`COc1ccc(-c2ccnc3cc(C(=O)Nc4ccc(N5CCC6(CC5)OCCO6)cc4)nn23)cc1OC` [Compound 274, N-(4-(1,4-dioxa-8-azaspiro[4.5]decan-8-yl)phenyl)-7-(3,4-dimethoxyphenyl)pyrazolo [1,5-a]pyrimidine-2-carboxamide]: the solubility at 90 min in data set [4] was less than 0.1 µg/mL. Also, the EC50 at human wild type-CFTR [2] and on human wild type-CFTR [5] was less than 200 nM each time. Moreover, the “Ratio of tear volume” value in the data set with C57BL/6 female mice stood at 1.07.

As for `COc1ccc(NC(=O)c2cc3nccc(-c4ccc(OC)c(OC)c4)n3n2)cc1` [Compound 6, 7-(3,4-dimethoxyphenyl)-N-(4-methoxyphenyl)pyrazolo[1,5-a]pyrimidine-2-carboxamide], in data set [4], the solubility at 90 min is less than 0.1 µg/mL. Further, the EC50 on human wild type-CFTR [2] and at human wild type-CFTR [5] was less than 200 nM each time. Moreover, the “Ratio of tear volume” value in the data set with C57BL/6 female mice is on record as 1.58.

For `COc1ccc(-c2ccnc3cc(C(=O)NC45CCC(C(=O)O)(CC4)CC5)nn23)cc1OC` [Compound 149, 4-(7-(3,4-dimethoxyphenyl)pyrazolo[1,5-a]pyrimidine-2-carboxamido)bicyclo[2.2.2]octane-1-carboxylic acid], the solubility at 90 min in data set [4] was more than 10 µg/mL. Besides, the EC50 was 200 to 2000 nM on human wild type-CFTR [2] and not below 2000 nM at human wild type-CFTR [5]. Moreover, the “Ratio of tear volume” value with C57BL/6 female mice worked out at 1.26.

With `COc1ccc(-c2ccnc3cc(C(=O)Nc4ccc(N5CCN(C(=O)OC(C)(C)C)CC5)cc4)nn23)cc1OC` [Compound 271, tert-butyl 4-(4-(7-(3,4-dimethoxyphenyl)pyrazolo [1,5-a]pyrimidine-2-carboxamido)phenyl) piperazine-1-carboxylate], the solubility at 90 min in data set [4] was less than 0.1 µg/mL. In addition, the EC50 at human wild type-CFTR [2] and at human wild type-CFTR [5] was less than 200 nM each time. For the same molecule, the “Ratio of tear volume” value with C57BL/6 female mice came out at 1.17.

As for `COc1ccc(-c2ccnc3cc(C(=O)NC45CCC(C(=O)N6CCOCC6)(CC4)CC5)nn23)cc1OC` [Compound 186, 7-(3,4-dimethoxyphenyl)-N-(4-(morpholine-4-carbonyl)bicyclo[2.2.2]octan-1-yl)pyrazolo[1,5-a] pyrimidine-2-carboxamide], the solubility at 90 min in data set [4] was more than 10 µg/mL. In addition, the EC50 on human wild type-CFTR [2] is less than 200 nM; on human wild type-CFTR [5] it was 200 to 2000 nM. Besides, in the data set on C57BL/6 female mice, the “Ratio of tear volume” value was found to be 1.05.

Regarding `COC(=O)c1ccc(NC(=O)c2cc3nccc(-c4ccc(OC)c(OC)c4)n3n2)cc1F` [Compound 141, methyl 4-(7-(3,4-dimethoxyphenyl)pyrazolo [1,5-a]pyrimidine-2-carboxamido)-2-fluorobenzoate], the solubility at 90 min in data set [4] is less than 0.1 µg/mL. The EC50 on human wild type-CFTR [2] and at human wild type-CFTR [5] was less than 200 nM each time. For the same molecule, the “Ratio of tear volume” value in the data set with C57BL/6 female mice is 1.34.

As for `COc1ccc(-c2ccnc3cc(C(=O)Nc4ccc(C(=O)N5CCN(C(C)C)CC5)cc4)nn23)cc1OC` [Compound 159, 7-(3,4-dimethoxyphenyl)-N-(4-(4-isopropylpiperazine-1-carbonyl)phenyl)pyrazolo[1,5-a]pyrimidine-2-carboxamide], the solubility at 90 min in data set [4] was in the range of 0.1 to 10 µg/mL (≈ 0.189 to 18.9 µM). Moreover, the EC50 at human wild type-CFTR [2] and on human wild type-CFTR [5] was 200 to 2000 nM throughout. The “Ratio of tear volume” value in the data set with C57BL/6 female mice is 2.11.

For `COc1ccc(-c2ccnc3cc(C(=O)Nc4ccc(C(=O)N5CCN(C)CC5)cc4F)nn23)cc1OC` [Compound 158, 7-(3,4-dimethoxyphenyl)-N-(2-fluoro-4-(4-methylpiperazine-1-carbonyl)phenyl)pyrazolo[1,5-a]pyrimidine-2-carboxamide], in data set [4], the solubility at 90 min is less than 0.1 µg/mL. Also, the EC50 at human wild type-CFTR [2] and on human wild type-CFTR [5] was less than 200 nM in each case. In the data set with C57BL/6 female mice, the “Ratio of tear volume” value is reported as 1.40.

For `COc1ccc(-c2ccnc3cc(C(=O)Nc4ccc(C(=O)O)cc4C)nn23)cc1OC` [Compound 126, 4-(7-(3,4-dimethoxyphenyl)pyrazolo[1,5-a]pyrimidine-2-carboxamido)-3-methylbenzoic acid], the solubility at 90 min in data set [4] fell in the range of 0.1 to 10 µg/mL (≈ 0.231 to 23.1 µM). For the same molecule, the EC50 on human wild type-CFTR [2] was 200 to 2000 nM; at human wild type-CFTR [5], not below 2000 nM. The “Ratio of tear volume” value in the data set with C57BL/6 female mice was 0.97.
